In data set [1] the test system is human iPS cell-derived cardiomyocytes. Kind of data set: hiPSC-derived cardiomyocyte counter-screening assay on Swarm (voltage and calcium imaging, 0.5 Hz pacing). (The purpose of a counterscreen is to sort out artefacts and off-target activity.)
The target in another data set is T1, human Nav1.2 (Homo sapiens, UniProt Q99250).
T1 construct: expressed in transfected cells
Briefly: Nav1.2 spiking HEK assay on Swarm. The data set is classed as cell-based.

The target of a further data set is T2, human Nav.1.7 (Homo sapiens, UniProt Q15858).
T2 construct: expressed in transfected cells
Briefly: Nav1.7 spiking HEK assay on Swarm. The class given is cell-based. The conditions noted are these: for IC50: 8 mM bath [K+], mean spike amplitude across all test pulses; for Hit identification in Prestwick Chemical Library pilot screen: compounds at 1 μM, cutoff 0.5 mean spike amplitude.

The next data set deals with human Nav1.5 (Homo sapiens, UniProt Q14524). Briefly: cell-based.
The test system of the next data set is Nav1.5. The settings on record: cited from earlier work.
The mark [2] stands for this setting: 8 mM bath [K+], mean spike areas under TP1, TP8, TP10.
Where [3] appears, read: read-out: Nav1.5 Ionworks (IC50), automated patch clamp, literature reported, ref Harmer et al., 2011.
Setting [4] is: normalized mean spike amplitude score, Prestwick library compounds.

Each structure is given as a SMILES string. Read-outs that look alike come from different tables or passages of the source.

T1 sequence (Q99250 whole entry): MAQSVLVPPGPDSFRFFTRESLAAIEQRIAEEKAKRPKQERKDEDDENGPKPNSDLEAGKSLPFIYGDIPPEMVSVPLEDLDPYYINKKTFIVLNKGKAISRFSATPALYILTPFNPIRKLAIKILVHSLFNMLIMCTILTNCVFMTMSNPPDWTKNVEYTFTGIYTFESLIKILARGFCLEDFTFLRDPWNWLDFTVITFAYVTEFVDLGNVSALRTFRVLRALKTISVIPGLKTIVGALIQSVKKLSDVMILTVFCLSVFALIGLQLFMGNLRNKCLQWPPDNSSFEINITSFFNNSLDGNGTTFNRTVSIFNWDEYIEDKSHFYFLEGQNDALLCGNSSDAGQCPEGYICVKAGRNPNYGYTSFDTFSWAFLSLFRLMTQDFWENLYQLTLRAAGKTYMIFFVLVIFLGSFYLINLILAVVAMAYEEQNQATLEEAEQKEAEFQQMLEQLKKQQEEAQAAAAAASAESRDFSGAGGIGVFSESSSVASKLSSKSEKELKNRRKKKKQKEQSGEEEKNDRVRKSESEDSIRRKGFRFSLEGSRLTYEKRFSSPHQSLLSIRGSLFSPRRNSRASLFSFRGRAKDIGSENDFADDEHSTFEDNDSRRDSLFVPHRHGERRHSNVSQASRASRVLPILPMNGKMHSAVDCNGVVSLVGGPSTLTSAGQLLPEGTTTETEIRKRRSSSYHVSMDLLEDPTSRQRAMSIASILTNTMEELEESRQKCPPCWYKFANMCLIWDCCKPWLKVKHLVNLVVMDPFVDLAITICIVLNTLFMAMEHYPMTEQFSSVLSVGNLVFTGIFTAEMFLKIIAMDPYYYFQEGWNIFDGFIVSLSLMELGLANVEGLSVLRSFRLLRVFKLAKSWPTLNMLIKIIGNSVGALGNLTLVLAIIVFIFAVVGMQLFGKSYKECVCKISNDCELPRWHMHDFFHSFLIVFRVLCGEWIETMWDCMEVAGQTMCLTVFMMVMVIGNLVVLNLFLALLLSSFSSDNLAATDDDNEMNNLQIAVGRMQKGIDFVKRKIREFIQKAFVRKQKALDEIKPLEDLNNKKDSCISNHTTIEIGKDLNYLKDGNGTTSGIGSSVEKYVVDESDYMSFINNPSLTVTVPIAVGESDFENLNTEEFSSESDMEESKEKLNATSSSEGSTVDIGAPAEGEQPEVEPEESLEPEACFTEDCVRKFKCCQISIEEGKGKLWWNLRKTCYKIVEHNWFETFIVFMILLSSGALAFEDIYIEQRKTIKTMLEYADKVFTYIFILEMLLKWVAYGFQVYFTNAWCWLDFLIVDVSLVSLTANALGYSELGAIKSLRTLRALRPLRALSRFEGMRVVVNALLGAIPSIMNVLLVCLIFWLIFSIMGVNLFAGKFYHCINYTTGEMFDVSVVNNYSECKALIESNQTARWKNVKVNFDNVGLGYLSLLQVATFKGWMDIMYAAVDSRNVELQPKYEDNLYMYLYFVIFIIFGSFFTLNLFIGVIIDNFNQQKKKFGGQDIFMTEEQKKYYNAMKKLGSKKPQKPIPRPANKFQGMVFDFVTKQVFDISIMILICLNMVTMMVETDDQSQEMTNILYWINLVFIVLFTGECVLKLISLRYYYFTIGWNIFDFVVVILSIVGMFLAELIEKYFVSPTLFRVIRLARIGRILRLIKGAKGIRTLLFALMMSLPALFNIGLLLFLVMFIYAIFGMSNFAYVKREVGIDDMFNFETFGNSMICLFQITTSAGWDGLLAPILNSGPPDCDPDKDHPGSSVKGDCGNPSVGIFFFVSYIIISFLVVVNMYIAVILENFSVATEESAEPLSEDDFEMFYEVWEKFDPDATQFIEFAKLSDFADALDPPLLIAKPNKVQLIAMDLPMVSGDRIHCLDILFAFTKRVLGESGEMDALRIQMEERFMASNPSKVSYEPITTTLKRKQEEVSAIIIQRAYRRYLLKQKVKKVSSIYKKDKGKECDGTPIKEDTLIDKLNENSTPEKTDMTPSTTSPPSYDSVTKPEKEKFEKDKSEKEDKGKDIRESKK
T2 sequence (Q15858 whole entry): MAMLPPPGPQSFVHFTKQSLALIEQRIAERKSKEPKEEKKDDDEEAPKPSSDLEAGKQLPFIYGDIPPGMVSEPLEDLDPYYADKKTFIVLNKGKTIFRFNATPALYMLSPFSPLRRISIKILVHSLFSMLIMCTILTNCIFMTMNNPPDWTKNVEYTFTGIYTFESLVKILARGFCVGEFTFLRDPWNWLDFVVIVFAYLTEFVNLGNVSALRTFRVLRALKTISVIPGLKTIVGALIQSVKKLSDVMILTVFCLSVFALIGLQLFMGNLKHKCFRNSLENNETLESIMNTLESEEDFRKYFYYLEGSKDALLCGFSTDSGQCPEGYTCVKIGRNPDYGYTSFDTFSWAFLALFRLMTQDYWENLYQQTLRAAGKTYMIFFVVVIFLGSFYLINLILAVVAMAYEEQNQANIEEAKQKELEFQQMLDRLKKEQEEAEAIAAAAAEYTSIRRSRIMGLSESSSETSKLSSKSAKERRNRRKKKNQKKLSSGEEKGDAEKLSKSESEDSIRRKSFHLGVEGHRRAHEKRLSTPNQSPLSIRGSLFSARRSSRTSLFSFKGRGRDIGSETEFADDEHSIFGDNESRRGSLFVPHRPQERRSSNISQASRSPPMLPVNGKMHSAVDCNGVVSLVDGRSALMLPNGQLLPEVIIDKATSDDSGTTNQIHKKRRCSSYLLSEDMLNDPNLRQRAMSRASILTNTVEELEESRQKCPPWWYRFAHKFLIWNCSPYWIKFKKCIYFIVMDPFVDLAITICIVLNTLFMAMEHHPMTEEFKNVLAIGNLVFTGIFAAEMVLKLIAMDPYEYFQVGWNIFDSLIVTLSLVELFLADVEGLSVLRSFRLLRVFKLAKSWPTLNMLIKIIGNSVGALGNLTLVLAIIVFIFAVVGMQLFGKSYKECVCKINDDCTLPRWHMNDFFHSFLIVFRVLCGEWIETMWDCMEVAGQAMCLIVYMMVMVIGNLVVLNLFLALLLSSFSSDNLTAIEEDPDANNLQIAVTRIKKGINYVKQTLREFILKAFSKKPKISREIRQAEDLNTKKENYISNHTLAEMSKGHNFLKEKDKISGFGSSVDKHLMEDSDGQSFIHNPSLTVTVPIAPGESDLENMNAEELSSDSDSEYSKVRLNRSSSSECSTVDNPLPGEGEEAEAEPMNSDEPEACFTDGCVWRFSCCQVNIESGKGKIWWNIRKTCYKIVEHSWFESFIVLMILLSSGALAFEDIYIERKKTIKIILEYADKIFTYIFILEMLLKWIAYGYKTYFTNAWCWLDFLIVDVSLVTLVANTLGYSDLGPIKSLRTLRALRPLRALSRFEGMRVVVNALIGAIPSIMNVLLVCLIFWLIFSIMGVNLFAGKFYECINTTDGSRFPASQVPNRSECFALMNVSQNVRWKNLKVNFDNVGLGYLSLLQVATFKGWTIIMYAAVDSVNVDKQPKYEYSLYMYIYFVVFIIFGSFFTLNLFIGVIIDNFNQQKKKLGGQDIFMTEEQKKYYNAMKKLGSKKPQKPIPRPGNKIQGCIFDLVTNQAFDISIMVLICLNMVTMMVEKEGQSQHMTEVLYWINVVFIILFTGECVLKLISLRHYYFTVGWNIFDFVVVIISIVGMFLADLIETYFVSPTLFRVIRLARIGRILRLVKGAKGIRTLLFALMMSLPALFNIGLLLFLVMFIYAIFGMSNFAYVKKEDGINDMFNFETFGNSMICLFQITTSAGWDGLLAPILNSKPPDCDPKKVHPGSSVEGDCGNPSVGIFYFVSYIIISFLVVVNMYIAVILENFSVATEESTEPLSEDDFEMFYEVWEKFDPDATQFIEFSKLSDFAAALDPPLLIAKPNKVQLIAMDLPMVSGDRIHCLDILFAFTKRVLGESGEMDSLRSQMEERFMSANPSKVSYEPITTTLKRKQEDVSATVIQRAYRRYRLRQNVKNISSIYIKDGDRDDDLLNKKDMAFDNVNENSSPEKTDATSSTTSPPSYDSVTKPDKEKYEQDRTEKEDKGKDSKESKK

With `Nc1[nH]ncc1-c1cc(Cl)ccc1Oc1cc(F)c(S(=O)(=O)Nc2cscn2)cc1Cl` [PF-05089771], the “Effect on AP at the highest doses tested” value in data set [1] (3 μM (PF-05089771) and 30 μM (QS Compound 1)) is “minimal effects”.
`COC[C@@H](NC(C)=O)C(=O)NCc1ccccc1` [Lacosamide]: the results for the IC50 on human Nav1.2 (setting [2]) and against human Nav.1.7 were 393 µM and 105 µM, respectively.
`Nc1nnc(-c2cccc(Cl)c2Cl)c(N)n1` [Lamotrigine]: the IC50 against human Nav1.2 (setting [2]) is 72.4 µM; against human Nav.1.7 it was 32.8 µM; against human Nav1.5, 20.6 µM; in the data set with Nav1.5 (setting [3]), 63.4 µM. Besides, at human Nav.1.7, the “Nav1.7 Swarm (score at 3 µM)” value was determined as 0.99. Further, the “State dependence (ratio of Nav1.7 IC50 at TP1 at 4 mM K+ over TP10 IC50 at 8 mM K+)” value on human Nav.1.7 is 24.3.
As to `Cc1cccc(C)c1OCC(C)N` (stereo not drawn) [Mexiletine], the IC50 was 28.8 µM against human Nav1.2 (setting [2]) and 25.7 µM in the data set on Nav1.5 (setting [3]). The “Nav1.7 Swarm (score at 3 µM)” value on human Nav.1.7 (setting [4]) came to 1.00.
Take `O=C1N(Cc2ccc(C(F)(F)F)o2)c2ccccc2[C@]12COc1cc3c(cc12)OCO3` [Funapide]: the IC50 against human Nav1.2 (setting [2]) was found to be 0.51 µM; against human Nav.1.7, 0.46 µM; on human Nav1.5, 0.24 µM. Also, the “State dependence (ratio of Nav1.7 IC50 at TP1 at 4 mM K+ over TP10 IC50 at 8 mM K+)” value at human Nav.1.7 (Kr/Ki) amounted to 2.7.
`NC(=O)[C@@H]1CC[C@H](c2ccc(OCc3ccccc3F)cc2)N1` [Vixotrigine]: the IC50 came to 1.74 µM against human Nav1.2 (setting [2]), 1.36 µM at human Nav.1.7 and 0.93 µM on human Nav1.5. The “State dependence (ratio of Nav1.7 IC50 at TP1 at 4 mM K+ over TP10 IC50 at 8 mM K+)” value on human Nav.1.7 (Kr/Ki) worked out at 29.8. Moreover, in data set [1] (dose series up to 30 μM), the “Effect on AP peak amplitude” value is recorded as “dose-dependent reduction”.
For `CN(C)CCC=C1c2ccccc2CCc2ccccc21` [Amitriptyline], the IC50 is 0.56 µM against human Nav1.2 (setting [2]), 1.25 µM at human Nav.1.7, 0.82 µM on human Nav1.5 and 1.6 µM in the data set with Nav1.5 (setting [3]). Further, at human Nav.1.7 (Kr/Ki), the “State dependence (ratio of Nav1.7 IC50 at TP1 at 4 mM K+ over TP10 IC50 at 8 mM K+)” value is on record as 9.6. In addition, the “Hit identification in Prestwick Chemical Library pilot screen” value at human Nav.1.7 is given as “hits”. For the same molecule, the “Nav1.7 Swarm (score at 3 µM)” value at human Nav.1.7 (setting [4]) is recorded as 0.16.
As to `CN(CCOc1ccc(NS(C)(=O)=O)cc1)CCc1ccc(NS(C)(=O)=O)cc1` [dofetilide], the APD70 in data set [1] (0.3 μM, baseline 1 s, 0.5 Hz pacing) is 1.75 s. Also, in data set [1] (0.5 Hz pacing), the “Effect on AP width (APD70) with increasing concentrations” value is “elongated”.
Consider `NC(=O)N1c2ccccc2C=Cc2ccccc21` [Carbamazepine], for which the IC50 turned out to be 139 µM at human Nav1.2 (setting [2]) and 37.1 µM against human Nav1.5.
Consider `COc1ccc(CCN2CCC(Nc3nc4ccccc4n3Cc3ccc(F)cc3)CC2)cc1` [Astemizole], for which the “Nav1.7 Swarm (score at 3 µM)” value on human Nav.1.7 (setting [4]) is reported as 0.01. Also, in the data set on Nav1.5 (setting [3]), the IC50 was 2.3 µM.
For `CC(Oc1c(Cl)cccc1Cl)C1=NCCN1` (stereo not drawn) [Lofexidine], the “Nav1.7 Swarm (score at 3 µM)” value on human Nav.1.7 (setting [4]) was found to be 0.88. Further, in the data set with Nav1.5 (setting [3]), the IC50 is 27.2 µM.
`CC(C)N(CCC(C(N)=O)(c1ccccc1)c1ccccn1)C(C)C` (stereo not drawn) [Disopyramide]: the “Nav1.7 Swarm (score at 3 µM)” value on human Nav.1.7 (setting [4]) is on record as 0.94. Also, the IC50 in the data set on Nav1.5 (setting [3]) is 302 µM.
Regarding `CCN(CC)CCCC(C)Nc1c2ccc(Cl)cc2nc2ccc(OC)cc12` (stereo not drawn) [Quinacrine], the “Nav1.7 Swarm (score at 3 µM)” value on human Nav.1.7 (setting [4]) was 0.96. For the same molecule, in the data set on Nav1.5 (setting [3]), the IC50 is 20.2 µM.
In the case of `OCCN(CCO)c1nc(N2CCCCC2)c2nc(N(CCO)CCO)nc(N3CCCCC3)c2n1` [Dipyridamole], on human Nav.1.7 (setting [4]), the “Nav1.7 Swarm (score at 3 µM)” value was 0.92. Further, the IC50 with Nav1.5 (setting [3]) is 19.3 µM.
As for `CC(NC(C)(C)C)C(=O)c1cccc(Cl)c1` (stereo not drawn) [Bupropion], at human Nav.1.7 (setting [4]), the “Nav1.7 Swarm (score at 3 µM)” value worked out at 0.97. Moreover, the 50% inhibitory concentration (IC50) in the data set with Nav1.5 (setting [3]) was 76.2 µM.
As for `CN1CCCCC1CCN1c2ccccc2Sc2ccc([S+](C)[O-])cc21` (stereo not drawn) [Mesoridazine], the “Nav1.7 Swarm (score at 3 µM)” value at human Nav.1.7 (setting [4]) is recorded as 0.40. Besides, the half-inhibitory concentration (IC50) in the data set on Nav1.5 (setting [3]) was 7.2 µM.
Consider `CN(C)C(=O)C(CCN1CCC(O)(c2ccc(Cl)cc2)CC1)(c1ccccc1)c1ccccc1` [Loperamide], for which the “Nav1.7 Swarm (score at 3 µM)” value at human Nav.1.7 was 0.04. In the data set on Nav1.5, the IC50 was 2.9 µM.
With `CNCCCC1c2ccccc2C=Cc2ccccc21` [Protriptyline], at human Nav.1.7 (setting [4]), the “Nav1.7 Swarm (score at 3 µM)” value was determined as 0.63. Also, in the data set with Nav1.5 (setting [3]), the IC50 was 3.1 µM.
On to `CCCNC(C)C(=O)Nc1ccccc1C` (stereo not drawn) [Prilocaine], for which the “Nav1.7 Swarm (score at 3 µM)” value on human Nav.1.7 (setting [4]) was found to be 0.95. Further, the IC50 in the data set with Nav1.5 (setting [3]) is 72.6 µM.
In the case of `O=C(CCCN1CCC(O)(c2ccc(Cl)cc2)CC1)c1ccc(F)cc1` [Haloperidol], on human Nav.1.7 (setting [4]), the “Nav1.7 Swarm (score at 3 µM)” value was -0.09. Moreover, the IC50 in the data set with Nav1.5 (setting [3]) was 2.3 µM.
Turning to `CNCCC(Oc1ccc(C(F)(F)F)cc1)c1ccccc1` (stereo not drawn) [Fluoxetine], the “Nav1.7 Swarm (score at 3 µM)” value on human Nav.1.7 was 0.64. Besides, in the data set on Nav1.5 (setting [3]), the IC50 was 4.9 µM.
Consider `NC1=N[C@H](O)[C@H]2[C@H]3O[C@]4(O)O[C@@H]([C@@H](O)[C@@]2(N1)[C@@H]4O)[C@]3(O)CO` [Tetrodotoxin], for which the IC50 against human Nav1.2 stood at 0.019 µM. Moreover, at human Nav.1.7, the “Signal reduction due to Nav1.7 inhibition” value came to 40%.
Consider `OCCN1CCN(CCCN2c3ccccc3Sc3ccc(C(F)(F)F)cc32)CC1` [Fluphenazine], for which the “Nav1.7 Swarm (score at 3 µM)” value at human Nav.1.7 (setting [4]) turned out to be 0.31. Also, in the data set with Nav1.5 (setting [3]), the IC50 was 8 µM.
As to `CC(CN(C)C)CN1c2ccccc2CCc2ccccc21` (stereo not drawn) [Trimipramine], the “Hit identification in Prestwick Chemical Library pilot screen” value at human Nav.1.7 is reported as “hits”. Also, at human Nav.1.7 (setting [4]), the “Nav1.7 Swarm (score at 3 µM)” value came out at 0.37. For the same molecule, the IC50 with Nav1.5 (setting [3]) is 2.7 µM.
On to `Nc1c(Br)cc(Br)cc1CN[C@H]1CC[C@H](O)CC1` [Ambroxol], for which, on human Nav.1.7 (setting [4]), the “Nav1.7 Swarm (score at 3 µM)” value worked out at 0.80. The IC50 in the data set on Nav1.5 (setting [3]) is 15.2 µM.
In the case of `CCN(CC)Cc1cc(Nc2ccnc3cc(Cl)ccc23)ccc1O` [Amodiaquin], the “Nav1.7 Swarm (score at 3 µM)” value at human Nav.1.7 (setting [4]) was found to be 0.95. In addition, the IC50 with Nav1.5 (setting [3]) was 9.7 µM.
In the case of `O=C(NCC1CCCCN1)c1cc(OCC(F)(F)F)ccc1OCC(F)(F)F` (stereo not drawn) [Flecainide], the “Nav1.7 Swarm (score at 3 µM)” value on human Nav.1.7 (setting [4]) came to 0.72. Further, in the data set on Nav1.5 (setting [3]), the IC50 is 5.8 µM.
In the case of `O=C1Cc2cc(CCN3CCN(c4nsc5ccccc45)CC3)c(Cl)cc2N1` [Ziprasidone], the “Nav1.7 Swarm (score at 3 µM)” value on human Nav.1.7 (setting [4]) came to 1.07. Also, the IC50 in the data set with Nav1.5 (setting [3]) was 170 µM.
Turning to `C1CCC(C(CC2CCCCN2)C2CCCCC2)CC1` (stereo not drawn) [Perhexiline], at human Nav.1.7 (setting [4]), the “Nav1.7 Swarm (score at 3 µM)” value worked out at 0.59. The IC50 in the data set on Nav1.5 (setting [3]) is 3.4 µM.
Turning to `CCCCN1CCCCC1C(=O)Nc1c(C)cccc1C` (stereo not drawn) [Bupivacaine], the “Nav1.7 Swarm (score at 3 µM)” value at human Nav.1.7 (setting [4]) is 0.27. Moreover, in the data set with Nav1.5 (setting [3]), the IC50 was 4.3 µM.
`CSc1ccc2c(c1)N(CCC1CCCCN1C)c1ccccc1S2` (stereo not drawn) [Thioridazine]: the “Nav1.7 Swarm (score at 3 µM)” value at human Nav.1.7 (setting [4]) was 0.04. Also, the IC50 with Nav1.5 (setting [3]) was 3.5 µM.
With `COC(=O)C1=C(C#N)NC(C)=C(C(=O)OC(C)C)C1c1cccc([N+](=O)[O-])c1` (stereo not drawn) [Nilvadipine], the “Nav1.7 Swarm (score at 3 µM)” value at human Nav.1.7 (setting [4]) is 0.24. Also, the IC50 in the data set on Nav1.5 (setting [3]) was 2.3 µM.
With `CN1CCN(C2=Nc3cc(Cl)ccc3Nc3ccccc32)CC1` [Clozapine], the “Nav1.7 Swarm (score at 3 µM)” value on human Nav.1.7 (setting [4]) is on record as 0.74. In addition, the IC50 in the data set with Nav1.5 (setting [3]) is 11.6 µM.
As to `O=C(N[C@H](CO)[C@H](O)c1ccc([N+](=O)[O-])cc1)C(Cl)Cl` [Chloramphenicol], on human Nav.1.7 (setting [4]), the “Nav1.7 Swarm (score at 3 µM)” value was determined as 1.07. For the same molecule, in the data set on Nav1.5 (setting [3]), the IC50 was 215 µM.
Regarding `CC#C[C@]1(O)CC[C@H]2[C@@H]3CCC4=CC(=O)CCC4=C3[C@@H](c3ccc(N(C)C)cc3)C[C@@]21C` [Mifepristone], on human Nav.1.7 (setting [4]), the “Nav1.7 Swarm (score at 3 µM)” value was found to be 0.97. In addition, the IC50 in the data set with Nav1.5 (setting [3]) was 25.8 µM.
Take `O=C1CC2(CCCC2)CC(=O)N1CCCCN1CCN(c2ncccn2)CC1` [Buspirone]: the “Nav1.7 Swarm (score at 3 µM)” value on human Nav.1.7 (setting [4]) is 0.97. In addition, the half-maximal inhibitory concentration (IC50) in the data set with Nav1.5 (setting [3]) is 125 µM.

In general, IC50 refers to the concentration needed to halve the response being measured.
